Laboratory results as given in US20060216330A1, “Peptides having an ace inhibiting effect” (priority 2003, published 2006).
Like-named read-outs stand apart in the source and are kept apart here. Ends that are not written are not given here. Peptide text beside a SMILES is read from it.

Assays:
ACE = ACE (Homo sapiens, UniProt P12821); assay: ACE activity measurement with fluorogenic substrate Abz-FRK(Dnp)P-OH
Protocol: ACE activity with the fluorogenic substrate Abz-FRK(Dnp)P—OH was monitored in 0.1 M Tris buffer pH 7.0, containing 100 mM NaCl. […] The ACE activity was continuously followed in a Fluostar (BMG) fluorometer with 2 dispensers by measuring the fluorescence at λex: 320 nm and λem: 420 nm.

[1] = test system: spontaneously hypertensive rats; details: Abubakar et al., 1998; cited from earlier work
[2] = In vitro gastro-intestinal digestion of Biozate (artificial human gastro intestinal tract)
Protocol: The stability of peptides in the human gastro-intestinal tract was studied by subjecting Biozate™ to typical conditions in the stomach and small intestine. Gastric conditions were mimicked by dissolving 5.0 g Biozate™, 2.1 g NaCl, 0.1 g NaH2PO4, 0.45 g lipase and 2.9 g pepsin in 900 mL of Millipore Q water. The fluid was adjusted to pH 3.5 with HCl, stirred with a peddle (50 rpm) and kept at 37° C. for 60 min. Subsequently, intestinal conditions were mimicked by adding 9.0 g pancreatin to the simulated gastric fluid and adjusting the pH to 6.8 with NaHCO3. The simulated intestinal fluid was incubated at 37° C. and continuous stirring (50 rpm) for 120 min. Samples were collected at different time points during the in vitro gastro-intestinal digestion. After collection, samples were directly heated at 95° C. for 30 min and subsequently stored at −20° C.
At certain times samples were taken from the GIT model system.

Sequence of ACE (P12821 30-1306, species assumed): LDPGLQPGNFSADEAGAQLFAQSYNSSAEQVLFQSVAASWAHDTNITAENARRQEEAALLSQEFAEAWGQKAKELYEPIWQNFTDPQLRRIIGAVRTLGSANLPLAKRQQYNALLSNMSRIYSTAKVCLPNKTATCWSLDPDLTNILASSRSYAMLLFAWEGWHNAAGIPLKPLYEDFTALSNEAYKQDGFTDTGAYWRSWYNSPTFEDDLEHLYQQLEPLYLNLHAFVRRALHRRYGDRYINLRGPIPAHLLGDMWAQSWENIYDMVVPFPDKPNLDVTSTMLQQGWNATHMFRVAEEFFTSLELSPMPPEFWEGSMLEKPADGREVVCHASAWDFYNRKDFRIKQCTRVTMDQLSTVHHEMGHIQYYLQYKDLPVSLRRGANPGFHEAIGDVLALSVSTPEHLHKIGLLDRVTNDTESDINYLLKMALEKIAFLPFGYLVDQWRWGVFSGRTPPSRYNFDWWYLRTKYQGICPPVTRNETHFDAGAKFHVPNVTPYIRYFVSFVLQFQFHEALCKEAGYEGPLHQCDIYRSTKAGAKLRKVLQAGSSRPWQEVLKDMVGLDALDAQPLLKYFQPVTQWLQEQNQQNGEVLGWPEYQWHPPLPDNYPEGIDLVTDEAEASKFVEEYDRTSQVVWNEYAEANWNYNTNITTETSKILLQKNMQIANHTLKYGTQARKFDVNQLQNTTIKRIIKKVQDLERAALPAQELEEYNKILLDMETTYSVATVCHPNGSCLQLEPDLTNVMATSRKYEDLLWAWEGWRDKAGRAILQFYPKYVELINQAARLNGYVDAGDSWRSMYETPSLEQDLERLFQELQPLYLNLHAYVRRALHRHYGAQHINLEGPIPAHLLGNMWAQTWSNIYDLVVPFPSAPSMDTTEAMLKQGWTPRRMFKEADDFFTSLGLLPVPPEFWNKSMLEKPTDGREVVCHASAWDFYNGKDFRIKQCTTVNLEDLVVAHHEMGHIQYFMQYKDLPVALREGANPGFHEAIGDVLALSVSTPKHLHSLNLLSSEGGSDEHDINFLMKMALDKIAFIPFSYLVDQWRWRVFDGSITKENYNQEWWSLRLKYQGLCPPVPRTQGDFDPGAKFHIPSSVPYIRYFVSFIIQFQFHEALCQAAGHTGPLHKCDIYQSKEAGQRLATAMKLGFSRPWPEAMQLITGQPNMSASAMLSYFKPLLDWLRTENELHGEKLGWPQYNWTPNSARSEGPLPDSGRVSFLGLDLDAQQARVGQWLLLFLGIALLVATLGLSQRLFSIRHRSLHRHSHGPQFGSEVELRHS

Molecule | IC50 (ACE) [µM] | antihypertensive activity [1] | Concentration, Original solution ([2]; Biozate original solution before digestion) [ng/mL] | Concentration, t = 0 min ([2]; t = 0 min, simulated gastric fluid pH 3.5, 37° C.) [ng/mL] | Concentration, t = 60 min ([2]; t = 60 min, end of gastric phase) [ng/mL] | Concentration, t = 65 min ([2]; t = 65 min, simulated intestinal fluid (pancreatin, pH 6.8)) [ng/mL] | Concentration, t = 75 min ([2]; t = 75 min, simulated intestinal fluid) [ng/mL] | Concentration, t = 90 min ([2]; t = 90 min, simulated intestinal fluid) [ng/mL] | Concentration, t = 120 min ([2]; t = 120 min, simulated intestinal fluid) [ng/mL] | Concentration, t = 150 min ([2]; t = 150 min, simulated intestinal fluid) [ng/mL] | Concentration, t = 180 min ([2]; t = 180 min, simulated intestinal fluid) [ng/mL] | Concentration, t = 0 min (pH 3.5) [ng/mL] | Concentration, t = 65 min (pH 6.8) [ng/mL]
CC[C@H](C)[C@H](N)C(=O)N1CCC[C@H]1C(=O)N[C@@H](C)C(=O)O [IPA] (H-Ile-Pro-Ala-OH; N-terminus and C-terminus assumed) | 50 | has antihypertensive activity | 0 | 0 | 0 | 9000 | 9000 | 9000 | 9000 | 14000 | 17000 | – | –
IPAVFK [IPAVFK] | 120 | – | – | – | – | – | – | – | – | – | – | 26000 | 3000
